Values joined by “and” are separate entries in the source; they are usually repeats but may differ in a detail not shown here. Equal values may be shown once.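 Test compounds were applied to cells in 96-well plates for 48 hours at 5 doses. Here, GI50 denotes the concentration required for 50% inhibition of growth. At the TGI there is no net growth.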
Key:
Assay in all cases: inhibition of tumour cell growth, NCI panel, 48 h
CCRF-CEM leukemia = tested on: CCRF-CEM leukemia
HCC-2998 colon = tested on: HCC-2998 colon
HL-60(TB) leukemia = tested on: HL-60(TB) leukemia
IGROV1 ovarian = tested on: IGROV1 ovarian
LOX IMVI melanoma = tested on: LOX IMVI melanoma
MDA-MB-435 = tested on: MDA-MB-435
MOLT-4 leukemia = tested on: MOLT-4 leukemia
OVCAR-4 ovarian = tested on: OVCAR-4 ovarian
PC-3 prostate = tested on: PC-3 prostate
SNB-19 CNS = tested on: SNB-19 CNS

Compound | TGI (CCRF-CEM leukemia) | GI50 (HCC-2998 colon) | TGI (HCC-2998 colon) | GI50 (HL-60(TB) leukemia) | TGI (HL-60(TB) leukemia) | GI50 (IGROV1 ovarian) | GI50 (LOX IMVI melanoma) | TGI (LOX IMVI melanoma) | GI50 (MDA-MB-435) | TGI (MDA-MB-435) | GI50 (MOLT-4 leukemia) | TGI (MOLT-4 leukemia) | GI50 (OVCAR-4 ovarian) | TGI (OVCAR-4 ovarian) | GI50 (PC-3 prostate) | TGI (PC-3 prostate) | GI50 (SNB-19 CNS) | TGI (SNB-19 CNS) | GI50 (CCRF-CEM leukemia) | TGI (IGROV1 ovarian)
COc1cccc(CNc2ncnc3c2ncn3C2OC(CO)C(O)C2O)c1O (stereo not given) | > 100 µM | 0.391 µM | > 38.2 µM | 0.0303 µM | 0.224 µM | 0.206 µM | 0.0616 µM | > 100 µM | 0.111 µM | 2.78 µM | 0.353 µM | > 44 µM | 0.105 µM | > 100 µM | 0.179 µM | > 100 µM | 0.48 µM | > 100 µM |  | 
CCOC(=O)c1ccc(NC(=O)NC2=NCCS2)cc1 | > 100 µM | 3.91 µM | > 76.7 µM | 0.503 µM | > 100 µM | 2.11 µM | 39.9 µM | > 100 µM | 3.42 µM | 19.4 µM | 1.17 µM | > 100 µM | 56.1 µM | > 100 µM | 0.451 µM | > 100 µM | 2.86 µM | > 100 µM | 0.433 µM | > 100 µM
Clc1ccc(/C=C/c2ccc3ccccc3n2)cc1 | > 100 µM | 0.968 µM | 8.41 µM | 0.268 µM | 0.828 µM | 0.716 µM | 2.51 µM | > 100 µM | 0.226 µM | 0.531 µM | 3.01 µM | > 100 µM | > 69.8 µM | > 100 µM | 1.74 µM | > 100 µM | 1.56 µM | > 100 µM | 0.508 µM | > 80.8 µM
C=C(CN1CCc2c([nH]c3ccccc23)C1)c1ccc(C(=O)Nc2ccccc2N)cc1 | 46.3 µM | 0.731 µM | 1.91 µM | 0.67 µM | 7.25 µM | 1.08 µM | 4.52 µM | 10.2 µM | 8.47 µM | 17.7 µM | 0.116 µM | 0.405 µM | 5.48 µM | 13.5 µM | 1.41 µM | 29.9 µM | 10.7 µM | 30.8 µM | 0.0581 µM | 18.9 µM
Cc1cc(CCl)c(C)cc1CCl | 5.61 µM | 1.54 µM | 3.51 µM | 2.98 µM | 13.2 µM | 1.47 µM | 0.883 µM | 3.79 µM | 1.84 µM | 4.69 µM | 0.573 µM | 8.39 µM | 3.4 µM | 12.8 µM | 2.25 µM | 10.1 µM | 3.75 µM | 17.6 µM | 0.351 µM | 6.25 µM
COc1ccc(C(=O)c2sc3nc(-c4ccccc4OC)ccc3c2N)cc1OC | > 100 µM | 9.71 µM | > 100 µM | 4.07 µM | > 100 µM | 20.3 µM |  |  | 4.25 µM | > 100 µM |  |  | 7.49 µM | > 100 µM | 2.84 µM | 35.1 µM | 22.8 µM | > 100 µM | 4.07 µM | > 100 µM
COc1ccc2c(c1)CN([C@@H](C)[C@H]1CC[C@H]3[C@@H]4CC[C@H]5C[C@@H](O)CC[C@]5(C)[C@H]4CC[C@]13C)CO2 | 6.19 µM |  | 3.01 µM |  | 5.91 µM |  |  |  |  | 3.48 µM |  | 2.98 µM |  | 17.8 µM |  | 7.46 µM |  | 4.1 µM |  | 14.6 µM
CN(C)N1C(=O)SCC(c2ccccc2)(c2ccccc2)C1=O | > 100 µM |  | > 100 µM |  | > 100 µM |  |  | > 100 µM |  | > 100 µM |  | > 100 µM |  |  |  | > 100 µM |  | > 100 µM |  | 
COc1cc(F)ccc1-c1cc(Nc2cc(CS(C)(=N)=O)ccn2)ncc1F (stereo not given) | > 100 µM | 0.184 µM |  | 0.0284 µM | 0.228 µM | 0.0571 µM | 0.0307 µM | > 100 µM | 0.107 µM | > 100 µM | 0.111 µM | 0.985 µM | 0.227 µM |  | 0.0451 µM | > 47.2 µM | 0.0644 µM | > 100 µM | 0.0344 µM | > 100 µM
CCCCCCNCCCNc1c2cc(OC)ccc2nc2cccc([N+](=O)[O-])c12 | 0.289 µM and 0.538 µM |  | 0.0643 µM | 0.155 µM |  | 0.223 µM | 0.272 µM | 0.542 µM and 0.974 µM | 0.164 µM | 0.314 µM and 0.321 µM | 0.0514 µM |  | 0.0885 µM | 0.346 µM and 0.238 µM |  | 0.56 µM and 1.02 µM | 0.206 µM | 3.86 µM and 1.02 µM | 0.118 µM | 
Nc1nc(N)c2cc(Sc3ccc4ccccc4c3)ccc2n1 | 4.83 µM | 0.878 µM | 2.13 µM |  | 2.77 µM | 0.817 µM |  | 1.93 µM |  | 2.54 µM |  | 5.51 µM |  | 5.26 µM |  | 6.12 µM |  | 7.61 µM |  | 14.1 µM
CCCc1nc(Cl)nc(Cl)c1Cl | 0.0731 µM |  | 4.57 µM |  | 0.359 µM |  |  | 1.62 µM |  | 1.41 µM |  | 0.551 µM |  | 0.289 µM |  | 1.6 µM |  | 2.57 µM |  | 2.14 µM
COc1ccc2c(c1)C(=O)/C(=C/c1cccc(OCC(=O)Nc3nc(C)c(C)s3)c1)O2 | 0.0337 µM | 1.53 µM | 3.54 µM | 0.0444 µM | 0.175 µM |  | < 0.0127 µM | < 0.0178 µM | 2.95 µM | 13.3 µM | 0.155 µM | 0.369 µM | 2.03 µM | 6.91 µM | 0.0417 µM | 0.226 µM | 12.2 µM | 25.7 µM | 0.0168 µM | 
COc1ccc(-c2cnnn2-c2nonc2-n2cccc2)cc1OC | > 100 µM | 5.53 µM | 37.7 µM | 3.09 µM | 15.4 µM | 5.13 µM |  |  | 0.716 µM | 3.01 µM | 3.63 µM | > 100 µM | 18.6 µM | > 100 µM | 14.1 µM | > 100 µM | 13.2 µM | > 100 µM | 3.3 µM | > 100 µM
CC(NC(=O)Cc1ccc(C(F)(F)P(=O)(OCc2ccc([N+](=O)[O-])o2)N(C)CCCCCl)cc1)c1ccc(OCC2CCCCC2)c(C(N)=O)c1 (stereo not given) |  | 3.25 µM | 9.11 µM | 1.89 µM | 4.72 µM | 9.93 µM | 2.06 µM | 5.87 µM | 2.69 µM | 6.73 µM | 2.19 µM | 7.06 µM | 3.33 µM | 12 µM | 6.91 µM | > 34.8 µM | 8.97 µM | 29.7 µM |  | 25.5 µM
